Among the test systems are A549 NSCLC; U251 CNS; MOLT-4 leukemia; SK-MEL-2 melanoma; UACC-257 melanoma; OVCAR-5 ovarian; UACC-62 melanoma; HCT-15 colon; HCC-2998 colon; DLD-1 colon; 786-0 renal; SNB-75 CNS; SNB-19 CNS; TK-10 renal; COLO 205 colon; A498 renal; BT-549 breast; MCF7 breast; NCI/ADR-RES ovarian; DU-145 prostate.
Holding throughout (test): inhibition of tumour cell growth, NCI panel, 48 h

The results in this text go back to PubChem BioAssay (NCI).

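The compound was tested at five concentrations on cells cultured in 96-well plates, with a 48-hour exposure period. TGI is the concentration that stops growth completely.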

Consider `Cc1ccc(NCC(=O)N2CC(=O)Nc3ccccc32)c(C)c1`, for which the TGI in the assay on A549 NSCLC, in the assay with U251 CNS, with MOLT-4 leukemia, in the assay with SK-MEL-2 melanoma, in the assay on UACC-257 melanoma and in the assay on OVCAR-5 ovarian was above 100 µM in each case. The TGI in the assay with UACC-62 melanoma, with HCT-15 colon, with HCC-2998 colon, in the assay on DLD-1 colon, with 786-0 renal and with SNB-75 CNS was above 100 µM in each case. Besides, the TGI in the assay on SNB-19 CNS, in the assay with TK-10 renal and with COLO 205 colon was above 100 µM each time.
With `O=c1cc(-c2ccccc2)c2ccccc2[nH]1`, the TGI with A549 NSCLC, with U251 CNS, in the assay on MOLT-4 leukemia, in the assay with SK-MEL-2 melanoma, in the assay with UACC-257 melanoma and in the assay with OVCAR-5 ovarian was above 100 µM throughout. Besides, the TGI with UACC-62 melanoma is above 100 µM; with HCT-15 colon, above 100 µM; in the assay with DLD-1 colon, above 100 µM; in the assay on 786-0 renal, above 100 µM; in the assay with SNB-75 CNS, 46.5 µM; with TK-10 renal, above 100 µM. This compound also registered a TGI in the assay on COLO 205 colon above 100 µM.
Turning to `CS(=O)(=O)OC1CCC2(C#N)CCC1C2=O` (centres undefined), the TGI in the assay on A549 NSCLC, in the assay on U251 CNS, in the assay with MOLT-4 leukemia, in the assay with SK-MEL-2 melanoma, in the assay on UACC-257 melanoma and in the assay with OVCAR-5 ovarian was above 100 µM in each case. Moreover, the TGI with UACC-62 melanoma, in the assay on HCT-15 colon, in the assay with HCC-2998 colon, in the assay with DLD-1 colon, in the assay on 786-0 renal and in the assay on SNB-75 CNS was above 100 µM each time. Besides, the TGI in the assay on A498 renal, with SNB-19 CNS, with TK-10 renal and with COLO 205 colon was above 100 µM each time.
For the compound `Cc1c2ccncc2c(C)c2c1[nH]c1ccc(OC(C)C)cc12`, the TGI in the assay with A549 NSCLC was 3.1 µM; with U251 CNS, 2.94 µM; with MOLT-4 leukemia it was 2.97 µM; in the assay with SK-MEL-2 melanoma, 3.22 µM; with UACC-257 melanoma, 3.3 µM; with OVCAR-5 ovarian, 2.87 µM. For the same compound, the TGI was 2.74 µM in the assay on HCT-15 colon; 3.48 µM with HCC-2998 colon; 3.13 µM with DLD-1 colon; 2.44 µM in the assay with 786-0 renal; 3.36 µM in the assay with SNB-75 CNS; 2.78 µM in the assay with A498 renal. Further, the results for the TGI in the assay with SNB-19 CNS, in the assay with TK-10 renal and in the assay on COLO 205 colon were 3.12 µM, 3.37 µM and 2.81 µM, respectively.
For the compound `[N-]=[N+]=NC(CCl)c1cn([C@H]2C[C@H](O)[C@@H](CO)O2)c(=O)[nH]c1=O` (some centres undefined), the TGI in the assay on A549 NSCLC, in the assay with U251 CNS, with MOLT-4 leukemia, in the assay with SK-MEL-2 melanoma, with OVCAR-5 ovarian and in the assay on UACC-62 melanoma was above 100 µM in each case. Moreover, the TGI in the assay with HCT-15 colon, in the assay with HCC-2998 colon, with DLD-1 colon, with 786-0 renal, in the assay on SNB-75 CNS and in the assay on SNB-19 CNS was above 100 µM in each case. Besides, the TGI in the assay on TK-10 renal and in the assay with COLO 205 colon was above 100 µM in each case.
Consider `O=C(NNC(=S)Nc1ccccc1)c1cc(-c2ccccc2)nc2ccccc12`, for which the TGI in the assay with A549 NSCLC amounted to 41.2 µM; with BT-549 breast, 49.6 µM; in the assay on MCF7 breast, 60.8 µM; with U251 CNS, 30.8 µM; with MOLT-4 leukemia, 32.2 µM; with NCI/ADR-RES ovarian, 52.1 µM. In addition, the TGI in the assay with SK-MEL-2 melanoma stood at 31.9 µM; with UACC-257 melanoma it was 60.1 µM; in the assay with OVCAR-5 ovarian it was 36.3 µM; in the assay on DU-145 prostate, 39.1 µM; in the assay with UACC-62 melanoma it was 39.1 µM; in the assay with HCT-15 colon, 33 µM. In addition, the TGI in the assay with HCC-2998 colon was 30.5 µM; in the assay on 786-0 renal, 30 µM; with SNB-75 CNS, 71.3 µM; in the assay on A498 renal it was 28 µM; in the assay with SNB-19 CNS it was above 100 µM; in the assay on TK-10 renal, above 100 µM. The compound further gave a TGI in the assay on COLO 205 colon of 36.8 µM.
With `CC[C@H](CCCC[C@H]1CC[C@@H]2CC(=O)C[C@H]12)OC`, the TGI in the assay with A549 NSCLC, in the assay on BT-549 breast, in the assay on MCF7 breast, in the assay with U251 CNS, in the assay with MOLT-4 leukemia and in the assay with NCI/ADR-RES ovarian was above 100 µM in each case. The TGI with SK-MEL-2 melanoma, in the assay on UACC-257 melanoma, in the assay with OVCAR-5 ovarian, in the assay with DU-145 prostate, with UACC-62 melanoma and with HCT-15 colon was above 100 µM in each case. Further, the TGI in the assay with HCC-2998 colon, with 786-0 renal, in the assay on SNB-75 CNS, in the assay on A498 renal, in the assay on SNB-19 CNS and in the assay on TK-10 renal was above 100 µM each time. In the assay with COLO 205 colon, this compound came in with a TGI above 100 µM.
Regarding `CN(Cc1ccccc1)C(=NC#N)N(Cc1ccccc1)Cc1ccccc1`, the TGI was above 100 µM in the assay on A549 NSCLC; 49.6 µM in the assay with BT-549 breast; 93.2 µM with MCF7 breast; 96.9 µM in the assay on U251 CNS; above 100 µM in the assay with MOLT-4 leukemia; 56.1 µM with NCI/ADR-RES ovarian. Moreover, the TGI is 40.7 µM in the assay on SK-MEL-2 melanoma; 54.4 µM with UACC-257 melanoma; 94.7 µM in the assay on OVCAR-5 ovarian; above 100 µM in the assay on DU-145 prostate; 55.6 µM in the assay on UACC-62 melanoma; 71 µM with HCT-15 colon. Also, the TGI was above 87.1 µM in the assay with HCC-2998 colon; above 100 µM in the assay with DLD-1 colon; 97.6 µM in the assay on 786-0 renal; 82.2 µM in the assay with SNB-75 CNS; above 100 µM with A498 renal; above 100 µM in the assay with SNB-19 CNS. Besides, the TGI in the assay with TK-10 renal was above 100 µM; in the assay with COLO 205 colon, 36.2 µM.
For `CCN1CCC(O)(c2ccc(Oc3ccccc3)cc2)C(C(=O)c2ccc(Oc3ccccc3)cc2)C1` (centres undefined), the TGI was found to be 27.5 µM in the assay with A549 NSCLC; 22.5 µM with BT-549 breast; 19.5 µM with MCF7 breast; 24.2 µM in the assay with U251 CNS; 32.1 µM in the assay with MOLT-4 leukemia; 35.1 µM with NCI/ADR-RES ovarian. The TGI was 30.1 µM in the assay with SK-MEL-2 melanoma; 26.3 µM in the assay on UACC-257 melanoma; 31.3 µM with OVCAR-5 ovarian; 27.5 µM in the assay with DU-145 prostate; 25.9 µM with UACC-62 melanoma; 25.7 µM with HCT-15 colon. Besides, the TGI in the assay with HCC-2998 colon turned out to be 19.6 µM; in the assay on 786-0 renal, 18.7 µM; with SNB-75 CNS it was 28.9 µM; in the assay on A498 renal, 30.4 µM; with SNB-19 CNS, 32.6 µM; in the assay with TK-10 renal, 27.3 µM. In addition, the TGI in the assay on COLO 205 colon came out at 30 µM.
Regarding `COc1ccc(/C=C2\CCC(CNc3ccc(S(N)(=O)=O)cc3)C2=O)cc1` (centres undefined), the TGI in the assay with A549 NSCLC is above 100 µM; in the assay on BT-549 breast, 33.9 µM; in the assay with MCF7 breast it was 14.7 µM; in the assay on U251 CNS, 39.2 µM; with MOLT-4 leukemia, above 44.2 µM; with NCI/ADR-RES ovarian, above 100 µM. The TGI in the assay on SK-MEL-2 melanoma was above 100 µM; in the assay with UACC-257 melanoma, 40.2 µM; in the assay on OVCAR-5 ovarian it was 42.6 µM; in the assay on DU-145 prostate it was above 88.1 µM; with UACC-62 melanoma, 50.6 µM; in the assay on HCT-15 colon it was 18.2 µM. In addition, the TGI is above 100 µM with HCC-2998 colon; 11.2 µM with 786-0 renal; 76.2 µM in the assay on SNB-75 CNS; above 86 µM with A498 renal; above 65.9 µM in the assay with SNB-19 CNS; 34.9 µM with TK-10 renal. The TGI in the assay with COLO 205 colon came out at 34.4 µM.
